The test system of assay [1] is Human melanoma cancer cells (SK-MEL-28). Description: Cell growth inhibition assay (CellTiter-Glo), SK-MEL-28. It counts as cell-based. (Cellular ATP, detected with luciferase, serves as a proxy for viable cell number.)
In assay [2] the test system is Human colon tumor cells (Colo205). Description: Cell growth inhibition assay (CellTiter-Glo), Colo205. It counts as cell-based. The method, boiled down: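 Growth is estimated from total cellular ATP measured by CellTiter-Glo luminescence after a 3-day compound exposure at 37 °C. Compounds are tested as 1:3 dilution series in 0.2% final DMSO, with inhibition expressed relative to vehicle-treated wells.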

Assay [3] deals with T1, BRAFV600E full-length (amino acids 2-766) (Homo sapiens, UniProt P15056, V600E).
T1 construct: His6-tagged BRAFV600E full-length (amino acids 2-766); His6; made in house; host or cells: baculovirus expression system (insect cells)
Description: B-Raf Accelerated MEK ATPase assay (BRAMA). The assay is classed as biochemical. As to conditions: for IC50: Table 1b, read-out: B-Raf pIC50 (converted). The method, boiled down: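 Coupled-enzyme readout: ADP generated by MEK-mediated ATP hydrolysis, uncoupled from ERK phosphorylation, is linked to NADH oxidation through pyruvate kinase and lactate dehydrogenase.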

Setting [4] is: SK-MEL-28, 72 h, Table 3a, 3 days incubation, read-out: Activity in SK-MEL-28 Tumor Cells.
[5] abbreviates: SK-MEL-28, Table 3b, later runs, average for the one or more runs, categorized, read-out: IC50 for SK-MEL-28.
Setting [6] is: COLO 205, 72 h, Table 2a, 3 days incubation, read-out: Activity in Colo205 Tumor Cells.
[7] abbreviates: COLO 205, Table 2b, later runs, average for the one or more runs, categorized, read-out: IC50 for Colo205.
Where [8] appears, read: B-Raf Activity, Table 1a, highest pIC50 for the one or more runs, categorized.
Where [9] appears, read: later runs, average pIC50 for the one or more runs, categorized.
Setting [10] is: B-Raf pIC50, Table 1b, later runs, average pIC50 for the one or more runs, categorized.

pIC50: −log10 of the molar value. Where two headings read alike, the source gives them in different places.

T1 sequence (P15056 2-766 V600E): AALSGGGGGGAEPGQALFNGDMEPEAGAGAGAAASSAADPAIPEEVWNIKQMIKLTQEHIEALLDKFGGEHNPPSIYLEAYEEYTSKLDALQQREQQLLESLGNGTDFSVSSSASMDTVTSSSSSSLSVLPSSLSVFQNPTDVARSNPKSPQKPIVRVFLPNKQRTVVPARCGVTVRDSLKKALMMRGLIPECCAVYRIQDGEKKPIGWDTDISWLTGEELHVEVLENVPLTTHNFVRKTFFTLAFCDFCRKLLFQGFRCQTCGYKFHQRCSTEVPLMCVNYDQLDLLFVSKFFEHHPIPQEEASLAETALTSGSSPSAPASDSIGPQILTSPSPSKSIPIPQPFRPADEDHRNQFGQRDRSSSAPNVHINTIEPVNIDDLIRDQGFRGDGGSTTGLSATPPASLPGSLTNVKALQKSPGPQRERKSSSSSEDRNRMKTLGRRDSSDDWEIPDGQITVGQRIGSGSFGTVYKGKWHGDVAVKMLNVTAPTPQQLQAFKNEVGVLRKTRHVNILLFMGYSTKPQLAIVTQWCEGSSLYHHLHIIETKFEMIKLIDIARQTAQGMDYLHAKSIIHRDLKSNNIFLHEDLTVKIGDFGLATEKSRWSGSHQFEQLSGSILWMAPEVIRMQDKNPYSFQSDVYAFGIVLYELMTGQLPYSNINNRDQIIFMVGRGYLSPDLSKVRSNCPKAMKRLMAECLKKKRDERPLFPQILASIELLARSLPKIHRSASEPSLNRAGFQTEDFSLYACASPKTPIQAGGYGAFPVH

Take `CC(C)CNc1nccc(-c2sc(C(C)(C)C)nc2-c2ccc(F)c(NS(=O)(=O)c3c(F)cccc3F)c2)n1` [Example 46, N-[5-(2-(1,1-Dimethylethyl)-5-{2-[(2-methylpropyl)amino]-4-pyrimidinyl}-1,3-thiazol-4-yl)-2-fluorophenyl]-2,6-difluorobenzenesulfonamide]: the pIC50 in assay [1] (setting [4]) was 6.00 to 7.00; in assay [1] (setting [5]), 6.00 to 7.00; in assay [2] (setting [6]), 6.00 to 7.00; in assay [2] (setting [7]), 6.00 to 7.00; in assay [3] (setting [8]) it was > 7.00. Further, the IC50 in assay [3] (setting [9]) is 3.16 to 31.6 nM.

For the compound `COc1c(NS(=O)(=O)c2c(F)cccc2F)cccc1-c1nc(N2CCOCC2)sc1-c1ccnc(NCC(C)C)n1` [Example 47, 2,6-Difluoro-N-{2-(methyloxy)-3-[5-{2-[(2-methylpropyl)amino]-4-pyrimidinyl}-2-(4-morpholinyl)-1,3-thiazol-4-yl]phenyl}benzenesulfonamide], the pIC50 in assay [1] (setting [4]) was 6.00 to 7.00; in assay [1] (setting [5]) it was 6.00 to 7.00; in assay [2] (setting [6]), 6.00 to 7.00; in assay [2] (setting [7]) it was 6.00 to 7.00; in assay [3] (setting [8]), > 7.00. Moreover, in assay [3] (setting [9]), the IC50 is 3.16 to 31.6 nM.

In the case of `Nc1nccc(-c2sc(N3CCOCC3)nc2-c2cccc(NS(=O)(=O)C3CCCCC3)c2F)n1` [Example 48, N-{3-[5-(2-Amino-4-pyrimidinyl)-2-(4-morpholinyl)-1,3-thiazol-4-yl]-2-fluorophenyl}cyclohexanesulfonamide], the pIC50 in assay [1] (setting [4]) was 6.00 to 7.00; in assay [1] (setting [5]) it was 6.00 to 7.00; in assay [2] (setting [6]), 6.00 to 7.00; in assay [2] (setting [7]), 6.00 to 7.00; in assay [3] (setting [8]), 6.00 to 7.00; in assay [3] (setting [10]), 6.00 to 7.50.

For `Nc1nccc(-c2sc(N3CCOCC3)nc2-c2cccc(NS(=O)(=O)N3CCCCC3)c2F)n1` [Example 49, N-{3-[5-(2-Amino-4-pyrimidinyl)-2-(4-morpholinyl)-1,3-thiazol-4-yl]-2-fluorophenyl}-1-piperidinesulfonamide], the pIC50 in assay [1] (setting [4]) was 6.00 to 7.00; in assay [1] (setting [5]) it was 6.00 to 7.00; in assay [2] (setting [6]), 6.00 to 7.00; in assay [2] (setting [7]) it was 6.00 to 7.00; in assay [3] (setting [8]), 6.00 to 7.00; in assay [3] (setting [10]) it was 6.00 to 7.50.

For the compound `Nc1nccc(-c2sc(N3CCOCC3)nc2-c2cccc(NS(=O)(=O)N3CCOCC3)c2F)n1` [Example 50, N-{3-[5-(2-Amino-4-pyrimidinyl)-2-(4-morpholinyl)-1,3-thiazol-4-yl]-2-fluorophenyl}-4-morpholinesulfonamide], the pIC50 is < 6.00 in assay [1] (setting [4]); 5.00 to 6.00 in assay [1] (setting [5]); < 6.00 in assay [2] (setting [6]); 5.00 to 6.00 in assay [2] (setting [7]); 6.00 to 7.00 in assay [3] (setting [8]); 6.00 to 7.50 in assay [3] (setting [10]).

With `Nc1nccc(-c2sc(N3CCOCC3)nc2-c2cccc(NS(=O)(=O)C3CC3)c2F)n1` [Example 51, N-{3-[5-(2-Amino-4-pyrimidinyl)-2-(4-morpholinyl)-1,3-thiazol-4-yl]-2-fluorophenyl}cyclopropanesulfonamide], the pIC50 in assay [1] (setting [4]) is < 6.00; in assay [1] (setting [5]), 5.00 to 6.00; in assay [2] (setting [6]) it was < 6.00; in assay [2] (setting [7]), 5.00 to 6.00; in assay [3], < 6.00.

Consider `CC(C)c1nc(-c2cccc(NS(=O)(=O)C3CC3)c2)c(-c2ccnc(NCCS(C)(=O)=O)n2)s1` [Example 52, N-{3-[2-(1-Methylethyl)-5-(2-{[2-(methylsulfonyl)ethyl]amino}-4-pyrimidinyl)-1,3-thiazol-4-yl]phenyl}cyclopropanesulfonamide], for which the pIC50 in assay [1] (setting [4]) was 6.00 to 7.00; in assay [1] (setting [5]), 6.00 to 7.00; in assay [2] (setting [6]), 6.00 to 7.00; in assay [2] (setting [7]), 6.00 to 7.00; in assay [3] (setting [8]), 6.00 to 7.00; in assay [3] (setting [10]) it was 6.00 to 7.50.

`Cc1ccc(F)cc1S(=O)(=O)Nc1cccc(-c2nc(C(C)(C)C)sc2-c2ccnc(N)n2)c1F` [Example 53, N-{3-[5-(2-Amino-4-pyrimidinyl)-2-(1,1-dimethylethyl)-1,3-thiazol-4-yl]-2-fluorophenyl}-5-fluoro-2-methylbenzenesulfonamide]: the pIC50 in assay [1] (setting [4]), in assay [1] (setting [5]), in assay [2] (setting [6]), in assay [2] (setting [7]) and in assay [3] (setting [8]) was > 7.00 in each case. Moreover, the IC50 in assay [3] (setting [9]) is 3.16 to 31.6 nM.

On to `CC(C)(C)c1nc(-c2cccc(NS(=O)(=O)c3ccccc3F)c2F)c(-c2ccnc(N)n2)s1` [Example 54, N-{3-[5-(2-Amino-4-pyrimidinyl)-2-(1,1-dimethylethyl)-1,3-thiazol-4-yl]-2-fluorophenyl}-2-fluorobenzenesulfonamide], for which the pIC50 in assay [1] (setting [4]) was > 7.00; in assay [1] (setting [5]) it was > 7.00; in assay [2] (setting [6]), > 7.00; in assay [2] (setting [7]) it was > 7.00; in assay [3] (setting [8]) it was > 7.00; in assay [3] (setting [10]), ≥ 8.50.

With `CC(C)c1nc(-c2ccc(F)c(NS(=O)(=O)C3CC3)c2)c(-c2ccnc(NCCS(C)(=O)=O)n2)s1` [Example 55, N-{2-fluoro-5-[2-(1-methylethyl)-5-(2-{[2-(methylsulfonyl)ethyl]amino}-4-pyrimidinyl)-1,3-thiazol-4-yl]phenyl}cyclopropanesulfonamide], the pIC50 in assay [1] (setting [4]) was < 6.00; in assay [1] (setting [5]), 5.00 to 6.00; in assay [2] (setting [6]), 6.00 to 7.00; in assay [2] (setting [7]) it was 6.00 to 7.00; in assay [3] (setting [8]), 6.00 to 7.00; in assay [3] (setting [10]), 6.00 to 7.50.

In the case of `Nc1nccc(-c2sc(N3CCOCC3)nc2-c2cccc(NS(=O)(=O)c3cc(F)ccc3F)c2F)n1` [Example 56, N-{3-[5-(2-Amino-4-pyrimidinyl)-2-(4-morpholinyl)-1,3-thiazol-4-yl]-2-fluorophenyl}-2,5-difluorobenzenesulfonamide], the pIC50 was > 7.00 in assay [1] (setting [4]); > 7.00 in assay [1] (setting [5]); > 7.00 in assay [2] (setting [6]); > 7.00 in assay [2] (setting [7]); > 7.00 in assay [3] (setting [8]); ≥ 8.50 in assay [3] (setting [10]).

For `CC(C)c1nc(-c2cccc(NS(=O)(=O)c3c(F)cccc3F)c2F)c(-c2ccnc(N)n2)s1` [Example 60, N-{3-[5-(2-Amino-4-pyrimidinyl)-2-(1-methylethyl)-1,3-thiazol-4-yl]-2-fluorophenyl}-2,6-difluorobenzenesulfonamide], the pIC50 in assay [1] (setting [4]) was > 7.00; in assay [1] (setting [5]), > 7.00; in assay [2] (setting [6]), > 7.00; in assay [2] (setting [7]), > 7.00; in assay [3] (setting [8]) it was > 7.00; in assay [3] (setting [10]), ≥ 8.50.

With `Nc1nccc(-c2sc(N3CCOCC3)nc2-c2cccc(NS(=O)(=O)c3cccnc3)c2F)n1` [Example 61, N-{3-[5-(2-Amino-4-pyrimidinyl)-2-(4-morpholinyl)-1,3-thiazol-4-yl]-2-fluorophenyl}-3-pyridinesulfonamide], the pIC50 is 6.00 to 7.00 in assay [1] (setting [4]); 6.00 to 7.00 in assay [1] (setting [5]); 6.00 to 7.00 in assay [2] (setting [6]); 6.00 to 7.00 in assay [2] (setting [7]); > 7.00 in assay [3] (setting [8]); ≥ 8.50 in assay [3] (setting [10]).

`Nc1nccc(-c2sc(N3CCOCC3)nc2-c2cccc(NS(=O)(=O)c3ccco3)c2F)n1` [Example 62, N-{3-[5-(2-Amino-4-pyrimidinyl)-2-(4-morpholinyl)-1,3-thiazol-4-yl]-2-fluorophenyl}-2-furansulfonamide]: the pIC50 is 6.00 to 7.00 in assay [1] (setting [4]); 6.00 to 7.00 in assay [1] (setting [5]); 6.00 to 7.00 in assay [2] (setting [6]); 6.00 to 7.00 in assay [2] (setting [7]); > 7.00 in assay [3] (setting [8]); ≥ 8.50 in assay [3] (setting [10]).

Turning to `CC(C)(C)c1nc(-c2cccc(NS(=O)(=O)C3CCCCC3)c2F)c(-c2ccnc(N)n2)s1` [Example 63, N-{3-[5-(2-Amino-4-pyrimidinyl)-2-(1,1-dimethylethyl)-1,3-thiazol-4-yl]-2-fluorophenyl}cyclohexanesulfonamide], the pIC50 was 6.00 to 7.00 in assay [1] (setting [4]); 6.00 to 7.00 in assay [1] (setting [5]); 6.00 to 7.00 in assay [2] (setting [6]); 6.00 to 7.00 in assay [2] (setting [7]); 6.00 to 7.00 in assay [3] (setting [8]); 6.00 to 7.50 in assay [3] (setting [10]).

As to `CC(C)CNc1nccc(-c2sc(C3CCOCC3)nc2-c2cccc(NS(=O)(=O)c3cc(F)ccc3F)c2F)n1` [Example 67, 2,5-Difluoro-N-{2-fluoro-3-[5-{2-[(2-methylpropyl)amino]-4-pyrimidinyl}-2-(tetrahydro-2H-pyran-4-yl)-1,3-thiazol-4-yl]phenyl}benzenesulfonamide], the pIC50 in assay [1] (setting [4]) is > 7.00; in assay [1] (setting [5]), > 7.00; in assay [2] (setting [6]), > 7.00; in assay [2] (setting [7]) it was > 7.00; in assay [3] (setting [8]) it was > 7.00; in assay [3] (setting [10]) it was ≥ 8.50.

For the compound `Nc1nccc(-c2sc(C3CCOCC3)nc2-c2ccc(F)c(NS(=O)(=O)c3cc(F)ccc3F)c2)n1` [Example 68, N-{5-[5-(2-Amino-4-pyrimidinyl)-2-(tetrahydro-2H-pyran-4-yl)-1,3-thiazol-4-yl]-2-fluorophenyl}-2,5-difluorobenzenesulfonamide], the pIC50 in assay [1] (setting [4]) is < 6.00; in assay [1] (setting [5]) it was 5.00 to 6.00; in assay [2] (setting [6]) it was < 6.00; in assay [2] (setting [7]) it was 5.00 to 6.00; in assay [3] (setting [8]), 6.00 to 7.00; in assay [3] (setting [10]) it was 6.00 to 7.50.

The values are drawn from patent US7994185B2, “Benzene sulfonamide thiazole and oxazole compounds” (Glaxo Smith Kline LLC, priority 2008, dated 2011).
